Assay results reported in publication PMC5428333, “Novel protein acetyltransferase, Rv2170, modulates carbon and energy metabolism in Mycobacterium tuberculosis” (Scientific Reports, 2017).

Target: T1, ICDH1 (Rv3339c) (Mycobacterium tuberculosis, UniProt P9WKL1)
T1 construct: gene icd-1
Test: NADPH formation at […] nm
Assay type: biochemical
Conditions: 2 mM NADP+, 0.25 mM DL-isocitrate, 10 mM MgCl2, 5 mM MnCl2, 20 mM Tris-HCl pH 7.5, room temperature

T1 sequence (P9WKL1 whole entry): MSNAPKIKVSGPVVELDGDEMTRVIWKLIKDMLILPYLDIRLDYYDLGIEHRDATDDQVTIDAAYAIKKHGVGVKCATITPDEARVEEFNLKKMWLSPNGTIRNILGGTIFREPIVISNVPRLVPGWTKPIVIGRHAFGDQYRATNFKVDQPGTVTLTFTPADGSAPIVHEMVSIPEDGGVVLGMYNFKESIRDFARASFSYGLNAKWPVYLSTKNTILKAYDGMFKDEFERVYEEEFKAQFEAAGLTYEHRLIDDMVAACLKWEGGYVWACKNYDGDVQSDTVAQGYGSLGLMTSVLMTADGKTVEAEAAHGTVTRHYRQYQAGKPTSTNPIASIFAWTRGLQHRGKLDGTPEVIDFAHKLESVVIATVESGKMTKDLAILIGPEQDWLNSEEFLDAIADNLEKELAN

NC(=O)c1ccc[n+]([C@@H]2O[C@H](COP(=O)(O)OP(=O)(O)OC[C@H]3O[C@@H](n4cnc5c(N)ncnc54)[C@H](OP(=O)(O)O)[C@@H]3O)[C@@H](O)[C@H]2O)c1 [NADP^+]
NADPH formation at 340 nm: monitoring the time dependent reduction of NADP^+ to NADPH
